Counter-ions that a name gives are not always drawn.
Tests used:
[1] = Safety evaluation in exisulind clinical trials; format: in vivo
Description: In these exisulind trials and several others involving the drug in other indications, safety was evaluated by monitoring adverse events (AEs), clinical laboratory tests (hematology, serum chemistry, and urinalysis), vital signs (blood pressure, pulse rate, respiratory rate, temperature, and weight), physical examination, and upper endoscopy.

[2] = test system: PKG activity in HCT116 colon cancer cells; assay: PKG assay of lysates of drug-treated HCT116 cells; format: cell-based
From the text: To test the effect of cGMP-specific PDE inhibition on neoplasia containing the β-catenin mutation, HCT116 colon cancer cells were employed. HCT116 is known to contain the β-catenin mutation, but is known not to contain the APC mutation.
The same procedure is used to grow the HCT116 cells as is used in the SW480 procedure described above. In this experiment, only exisulind and controls were used.

[3] = test system: HT-29 human colon carcinoma cell line; assay: Growth inhibition, SRB assay, HT-29; format: cell-based; design: Growth Inhibition: key to the marks not given beside the values
[4] = rat, in vivo
HT-29 = assay: Growth inhibition, neutral red assay, HT-29; format: cell-based, human; conditions: free base, five days
Description: (§1) Compound I's activity is not confined to activity against colon cancer cell lines or animal models of colon cancer. It has a broad range of anti-neoplastic effects in various neoplastic cell lines. Various types of human cancer cell lines were propagated under sterile conditions in RPMI 1640 medium with 10% fetal bovine serum, 2 mM L-glutamine and sodium bicarbonate. To determine growth inhibitory effects of Compound I, cells were seeded in 96-well plates at a density of 1000 cells per well. Twenty-four hours after plating, the cells were dosed with various concentrations of the free base of Compound I solubilized in DMSO (final concentration 0.1%). The effect of the drug on tumor cell growth was determined using the neutral red cytotoxicity assay following five days of continuous treatment. Neutral red is a dye that is selectively taken up by viable cells by an ATP-dependent transport mechanism.

Colo 205 = assay: Growth inhibition, neutral red assay, Colo 205; format: cell-based, human; conditions: free base, five days
Description: as §1

OVCAR = assay: Growth inhibition, neutral red assay, OVCAR; format: cell-based; conditions: Homo sapiens; HCl salt
Description: as §1

Row | SMILES | apoptosis rates in paired biopsies of polyp and normal colonic tissues ([1]; APC patients) | toxicities in clinical trials ([1]; human, in vivo) | maximum tolerated dose (MTD) ([1]; patients with intact colons) [mg] | maximum tolerated dose (MTD) ([1]; patients with subtotal colectomy) [mg] | maximum tolerated dose (MTD) ([1]; pediatric patients) [mg] | PKG activation relative to controls [2] | IC50 ([3]; Homo sapiens, HT-29, 144 h, six days, SRB assay, read-out: IC50, growth of HT-29 cells) [nM] | inhibition at 100 µM ([3]; Homo sapiens, HT-29, read-out: Growth-inhibitory activity, % Inhibition at 100 μM) [%] | Growth Inhibition ([3]; qualitative activity profile) | signs of toxicity, single oral doses [4] | findings after single intraperitoneal dose ([4]; ip, 1000 mg/kg) | body weight gain, single oral dose ([4]; po, 4000 mg/kg) | GI50 (HT-29; Homo sapiens, HT-29, 120 h) [µM] | GI90 μM, HT-29 (HT-29) [µM] | GI50 (Colo 205; Homo sapiens, COLO 205, 120 h) [µM] | GI90 μM, Colo 205 (Colo 205) [µM] | GI50 (OVCAR) [µM]
1 | CC1=C(CC(=O)O)c2cc(F)ccc2/C1=C\c1ccc(S(C)(=O)=O)cc1 [Exisulind, 5-fluoro-2-methyl-1-(p-methylsulfonylbenzylidene)-3-indenylacetic acid] | increased apoptosis rates in polyp, but not normal colonic tissues | did not demonstrate any blood dyscrasia, dose-limiting vomiting, or neurological or renal toxicities | 400 | 600 | 350 | yielded PKG that was phosphorylated to a greater extent than the corresponding controls | ~200000 | < 50 | ++ | – | – | – | – | – | – | – | –
2 | CC1=C(CC(=O)NCc2ccccc2)c2cc(F)ccc2/C1=C\c1ccncc1 [Compound I, (Z)-5-fluoro-2-methyl-(4-pyridylidene)-3-(N-benzyl)indenylacetamide hydrochloride] | – | – | – | – | – | – | – | – | – | no observable signs of toxicity | reduced body weight gain, with mesenteric adhesions seen in some animals | body weight gains were slightly reduced | 2.1 | 8.0 | 1.6 | 2.4 | 1.2
